What was measured:
Assay type in all cases: in vivo
Phakopsora pachyrhizi = test: Phakopsora test (soybeans) / protective; conditions: evaluated 11 days after inoculation
Protocol: To produce a suitable preparation of active compound, 1 part by weight of active compound or active compound combination is mixed with the stated amounts of solvent and emulsifier, and the concentrate is diluted with water to the desired concentration.
To test for protective activity, young plants are sprayed with the preparation of active compound or active compound combination at the stated rate of application. After the spray coating has dried on, the plants are placed in a greenhouse at a temperature of approximately 23° C. and a relative atmospheric humidity of approximately 70%.
1 day after spraying, the plants are inoculated with an aqueous spore suspension of the causal agent of soybean rust (Phakopsora pachyrhizi). The plants are then placed in a greenhouse at approximately 20° C. and a relative atmospheric humidity of approximately 80%. The test is evaluated 11 days after the inoculation. 0% means an efficacy which corresponds to that of the control, while an efficacy of 100% means that no disease is observed.

[1] = test system: Blumeria graminis fsp. tritici; test: Blumeria test (wheat) / preventive; conditions: rate of application 62.5 ppm, evaluated 7 days after inoculation
Protocol: [table] To produce a suitable preparation of active compound, 1 part by weight of active compound or active compound combination is mixed with the stated amounts of solvent and emulsifier, and the concentrate is diluted with water to the desired concentration. To test for preventive activity, young plants are sprayed with the preparation of active compound or active compound combination at the stated rate of application. After the spray coating has been dried, the plants are dusted with spores of Blumeria graminis fsp. tritici. The plants are placed in the greenhouse at a temperature of approximately 18° C. and a relative atmospheric humidity of approximately 80% to promote the development of mildew pustules. The test is evaluated 7 days after the inoculation. 0% means an efficacy which corresponds to that of the control, while an efficacy of 100% means that no disease is observed.

Sphaerotheca fuliginea = test: Sphaerotheca test (cucumbers) / protective; conditions: rate of application 2 ppm, evaluated 7 days after inoculation
Protocol: [table] To produce a suitable preparation of active compound, 1 part by weight of active compound is mixed with the stated amounts of solvent and emulsifier, and the concentrate is diluted with water to the desired concentration. To test for protect activity, young plants are sprayed with the preparation of active compound at the stated rate of application. After the spray coating has dried on, the plants are inoculated with an aqueous spore suspension of Sphaerotheca fuliginea. The plants are then placed in a greenhouse at approximately 23° C. and a relative atmospheric humidity of approximately 70%. The test is evaluated 7 days after the inoculation. 0% means an efficacy which corresponds to that of the control, while an efficacy of 100% means that no disease is observed.

SMILES	Efficacy in % (Phakopsora pachyrhizi; rate of application 2.5 ppm) [%]	Efficacy in % (Phakopsora pachyrhizi; rate of application 5 ppm) [%]	Efficacy in % [1] [%]	Efficacy in % (Sphaerotheca fuliginea) [%]	Efficacy in % (Phakopsora pachyrhizi; rate of application 0.1 ppm) [%]	Efficacy in % (Phakopsora pachyrhizi; rate of application 0.5 ppm) [%]
CNC(=O)/C(=N/OC)c1ccccc1Oc1ccccc1 [Metominostrobin, (E)-α-(methoxyimino)-N-methyl-2-phenoxy-benzeneacetamide]	0	20	50	0	–	–
OC(Cc1ccccc1Cl)(Cn1nc[nH]c1=S)C1(Cl)CC1 (centres unmarked) [Prothioconazole, 2-[2-(1-chlorocyclopropyl)-3-(2-chlorophenyl)-2-hydroxypropyl]-2,4-dihydro-[1,2,4]-triazole-3-thione]	–	–	13	65	20	50
